# Test results as given in patent US20240408169A1 (priority 2023, published 2024).
# *1 amine or outer side, *2 acyl side, *3 side chain or, on linkers, in order; H or OH if unused. Where a SMILES comes first, the peptide text is derived from it. Bridges are numbered along the chain shown (N, C = ends). [ ]: non-standard residue; d: D form. The star is where a group is joined. X165 = CN([C@@H](Cc1cc(Cl)ccc1-c1ccc(N2CCOCC2)c(Cl)c1)C(=O)[*:2])[*:1]; X167 = CN([C@@H](Cc1cc(F)ccc1C1=CCN(S(C)(=O)=O)CC1)C(=O)[*:2])[*:1]; NMehhhLys(Me) = CN([C@@H](CCCCCCCN(C)[*:3])C(=O)[*:2])[*:1]; X117 = Cc1cc(-c2ccc(F)cc2C[C@@H](C(=O)[*:2])N(C)[*:1])cnn1; NMe3Pal(2-OcPr,5-F) = CN[C@@H](Cc1cc(F)cnc1OC1CC1)C(=O)O; NMe(hhhLys) = CN([C@@H](CCCCCCCN[*:3])C(=O)[*:2])[*:1]; Cyclobutanecarbonyl(1-CF3) = O=C(C1(C(F)(F)F)CCC1)*; cBuCO(3,3-F2-1-CF3) = O=C(C1(C(F)(F)F)CC(F)(F)C1)*; NMePhe(2,5-Cl2) = CN[C@@H](Cc1cc(Cl)ccc1Cl)C(=O)O; Pro(trans-4-F) = O=C(O)[C@@H]1C[C@@H](F)CN1; X155 = C[C@@](O)(C(=O)*)C(F)(F)F; Gly(cPr) = N[C@H](C(=O)O)C1CC1
# Key:
# NCI-H1048 cells = assay: MTT proliferation assay, NCI-H1048; type: cell-based; conditions: 5 days compound exposure, 1:3 serial dilution starting at 10 μM;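 further: Dose-response in 96-well plates over 8 or 10 concentration points, with exposure spanning 3-4 cell doublings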
# CyclinB1/CDK1 = biological target: T1, CyclinB1/CDK1 (Homo sapiens, UniProt P14635); assay: Fluorescence Polarization (FP) competitive binding assay, Cyclin B1/Cdk1; conditions: 10 nM Cyclin B1/Cdk1, 2 nM FAM probe; average of 2-3 independent experiments; read-out: Cyclin B FP IC50;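 further: fluorescence polarization read after equilibration at room temperature, with IC50 taken from serially diluted dose-response curves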
# T1 construct: purchased Eurofins, discovery 14-450
# CyclinE1/CDK2 = biological target: T2, CyclinE1/CDK2 (Homo sapiens, UniProt P24864); assay: Fluorescence Polarization (FP) competitive binding assay, Cyclin E1/Cdk2; conditions: 10 nM Cyclin E1/Cdk2, 2 nM FAM probe; average of 2-3 independent experiments; read-out: Cyclin E FP IC50;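 further: readings taken after two-hour equilibration at room temperature in HEPES buffer with NaCl, DTT, NP-40 and BSA, IC50 fitted from eight-concentration serial dilution series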
# T2 construct: purchased Eurofins, discovery 14-475
# CyclinA2/CDK2 = biological target: T3, CyclinA2/CDK2 (Homo sapiens, UniProt P20248); assay: Fluorescence Polarization (FP) competitive binding assay, Cyclin A2/Cdk2; conditions: 8 nM Cyclin A2/Cdk2, 2 nM FAM probe; average of 2-3 independent experiments; read-out: Cyclin A FP IC50;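 further: plates equilibrated two hours at room temperature before polarization reading, IC50 fitted from eight-concentration compound titration curves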
# T3 construct: purchased CRELUX Protein Services
# OVCAR3 cells = assay: MTT proliferation assay, OVCAR3; type: cell-based; conditions: 5 days compound exposure, 1:3 serial dilution starting at 10 μM;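 further: compound given as an 8- or 10-point series, one day after plating, with exposure covering roughly 3-4 cell doublings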
SMILES,GI50 (NCI-H1048 cells),IC50 (CyclinB1/CDK1),IC50 (CyclinE1/CDK2),IC50 (CyclinA2/CDK2),GI50 (OVCAR3 cells)
"CC(C)C[C@@H]1NC(=O)[C@@H](N(C)C(=O)[C@@H](NC(=O)[C@@H]2C[C@@H](F)CN2C(=O)C2(C(F)(F)F)CC(F)(F)C2)C2CC2)CCCCCCCN(C)C(=O)[C@H](Cc2cc(F)ccc2C2=CCN(S(C)(=O)=O)CC2)N(C)C1=O [Example 100] ({cBuCO(3,3-F2-1-CF3)}-[Pro(trans-4-F)][Gly(cPr)][NMehhhLys(Me)]L[X167]; lactam 3-C)",20 nM,20 nM,450 nM,20 nM,20 nM
"CC(C)C[C@@H]1NC(=O)[C@@H](N(C)C(=O)[C@@H](NC(=O)[C@@H]2C[C@@H](F)CN2C(=O)[C@@](C)(O)C(F)(F)F)C2CC2)CCCCCCCNC(=O)[C@H](Cc2cc(Cl)ccc2Cl)N(C)C1=O [Example 10] (X155-[Pro(trans-4-F)][Gly(cPr)][NMe(hhhLys)]L[NMePhe(2,5-Cl2)]; lactam 3-C)",20 nM,20 nM,120 nM,100 nM,30 nM
"CC(C)C[C@@H]1NC(=O)[C@@H](N(C)C(=O)[C@@H](NC(=O)[C@@H]2C[C@@H](F)CN2C(=O)C2(C(F)(F)F)CCC2)C2CC2)CCCCCCCNC(=O)[C@H](Cc2cc(F)cnc2OC2CC2)N(C)C1=O [Example 134] ({Cyclobutanecarbonyl(1-CF3)}-[Pro(trans-4-F)][Gly(cPr)][NMe(hhhLys)]L[NMe3Pal(2-OcPr,5-F)]; lactam 3-C)",30 nM,20 nM,120 nM,100 nM,40 nM
CC(C)C[C@@H]1NC(=O)[C@@H](N(C)C(=O)[C@@H](NC(=O)[C@@H]2C[C@@H](F)CN2C(=O)C2(C(F)(F)F)CC(F)(F)C2)C2CC2)CC=CCCCCNC(=O)[C@H](Cc2cc(Cl)ccc2C2=CCN(S(C)(=O)=O)CC2)N(C)C1=O [Example 23],180 nM,20 nM,5470 nM,120 nM,210 nM
"Cc1cc(-c2ccc(F)cc2C[C@H]2C(=O)NCCCCCCC[C@H](N(C)C(=O)[C@@H](NC(=O)[C@@H]3C[C@@H](F)CN3C(=O)C3(C(F)(F)F)CC(F)(F)C3)C3CC3)C(=O)N[C@@H](CC(C)C)C(=O)N2C)cnn1 [Example 294] ({cBuCO(3,3-F2-1-CF3)}-[Pro(trans-4-F)][Gly(cPr)][NMe(hhhLys)]L[X117]; lactam 3-C)",80 nM,20 nM,1440 nM,80 nM,130 nM
"CC(C)C[C@@H]1NC(=O)[C@@H](N(C)C(=O)[C@@H](NC(=O)[C@@H]2C[C@@H](F)CN2C(=O)C2(C(F)(F)F)CC(F)(F)C2)C2CC2)CCCCCCCN(C)C(=O)[C@H](Cc2cc(F)cnc2OC2CC2)N(C)C1=O [Example 128] ({cBuCO(3,3-F2-1-CF3)}-[Pro(trans-4-F)][Gly(cPr)][NMehhhLys(Me)]L[NMe3Pal(2-OcPr,5-F)]; lactam 3-C)",30 nM,20 nM,190 nM,80 nM,30 nM
"CC(C)C[C@@H]1NC(=O)[C@@H](N(C)C(=O)[C@@H](NC(=O)[C@@H]2C[C@@H](F)CN2C(=O)C2(C(F)(F)F)CC(F)(F)C2)C2CC2)CCCCCCCN(C)C(=O)[C@H](Cc2cc(Cl)ccc2-c2ccc(N3CCOCC3)c(Cl)c2)N(C)C1=O [Example 345] ({cBuCO(3,3-F2-1-CF3)}-[Pro(trans-4-F)][Gly(cPr)][NMehhhLys(Me)]L[X165]; lactam 3-C)",20 nM,20 nM,3050 nM,30 nM,40 nM
CC(=O)N1CC=C(c2ccc(F)cc2C[C@H]2C(=O)N(C)CCCCC=CC[C@H](N(C)C(=O)[C@@H](NC(=O)[C@@H]3C[C@@H](F)CN3C(=O)C3(C(F)(F)F)CC(F)(F)C3)C3CC3)C(=O)N[C@@H](CC(C)C)C(=O)N2C)CC1 [Example 39],90 nM,20 nM,940 nM,60 nM,210 nM
